Consider 7 compounds from PubChem BioAssay (NCI).

Among the test systems are EKVX NSCLC; HCT-15 colon; HOP-62 NSCLC; K-562 leukemia; OVCAR-5 ovarian; PC-3 prostate; RXF 393 renal; SK-MEL-28 melanoma; SK-OV-3 ovarian; T-47D breast.
Common to all, as to test: inhibition of tumour cell growth, NCI panel, 48 h

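In this assay, cells in 96-well plates receive the compound at five concentrations for 48 hours. Endpoints are linearly interpolated between the surrounding concentrations. At the GI50, growth is halved. TGI marks complete inhibition of growth.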

For `COc1ccc(/C=C/C(=O)/C=C(/C=C/c2ccc(OC)c(OC)c2)OB(F)F)cc1OC`, the GI50 with EKVX NSCLC was 1.04 µM; in the test with HCT-15 colon, 0.286 µM; with HOP-62 NSCLC it was 2.46 µM; in the test on K-562 leukemia it was 0.463 µM; in the test with OVCAR-5 ovarian, 2.26 µM; in the test with PC-3 prostate, 1.05 µM. Further, the GI50 in the test on RXF 393 renal was 0.34 µM; in the test with SK-MEL-28 melanoma, 1.18 µM; in the test with SK-OV-3 ovarian it was 2.98 µM; in the test with T-47D breast it was 0.805 µM. Also, the TGI in the test with EKVX NSCLC was > 100 µM; in the test on HCT-15 colon it was 1.12 µM; in the test with HOP-62 NSCLC it was 7.05 µM; with K-562 leukemia, > 100 µM; in the test on OVCAR-5 ovarian it was 5.86 µM; with PC-3 prostate it was 7.51 µM. Also, the TGI with RXF 393 renal was 1.31 µM; with SK-MEL-28 melanoma, 3.1 µM; with SK-OV-3 ovarian it was 12.1 µM; in the test on T-47D breast it was > 100 µM.
For the compound `COc1cccc2c(Nc3ccc(C(=O)NCCNCCO)cc3)cc(-c3ccccc3)nc12`, the GI50 with EKVX NSCLC is > 100 µM; in the test with HCT-15 colon, 12.2 µM; in the test on HOP-62 NSCLC, 35.4 µM; in the test on K-562 leukemia, 22.3 µM; with OVCAR-5 ovarian, 76.7 µM; in the test with PC-3 prostate it was 35.4 µM. In addition, the GI50 in the test with RXF 393 renal is 33.1 µM; with SK-MEL-28 melanoma it was 35.2 µM; in the test on SK-OV-3 ovarian, 86.7 µM; in the test on T-47D breast it was 23 µM. Besides, the TGI is > 100 µM in the test on EKVX NSCLC; > 100 µM in the test on HCT-15 colon; > 100 µM in the test on HOP-62 NSCLC; 64.9 µM with K-562 leukemia; > 100 µM in the test with OVCAR-5 ovarian; > 100 µM in the test with PC-3 prostate. Moreover, the TGI in the test with RXF 393 renal is 93.1 µM; with SK-MEL-28 melanoma, > 100 µM; in the test with SK-OV-3 ovarian it was > 100 µM; with T-47D breast it was 62 µM.
Take `CCOC(=O)Oc1c(OC)cc(C(=O)c2ccc(OC)c(OC(=O)CCl)c2OC)cc1OC`: the GI50 was 3.63 µM in the test with EKVX NSCLC; 0.415 µM with HCT-15 colon; 0.836 µM in the test on HOP-62 NSCLC; 0.457 µM in the test with K-562 leukemia; 5.88 µM in the test on OVCAR-5 ovarian; 2.83 µM in the test on PC-3 prostate. Besides, the GI50 is 1.54 µM in the test on RXF 393 renal, 2.31 µM with SK-MEL-28 melanoma, 2.58 µM in the test with SK-OV-3 ovarian and 7.32 µM in the test with T-47D breast. Also, the TGI in the test on EKVX NSCLC, in the test with HCT-15 colon, with HOP-62 NSCLC, in the test with K-562 leukemia, with OVCAR-5 ovarian and with PC-3 prostate was > 100 µM each time. Further, the TGI in the test on RXF 393 renal is 8.08 µM; with SK-MEL-28 melanoma, > 100 µM; with SK-OV-3 ovarian it was > 100 µM; in the test on T-47D breast, > 100 µM.
In the case of `CC(C)(C)[Si](C)(C)OC1[C@@H](O[Si](C)(C)C(C)(C)C)[C@@H](CNC(=O)NC(=O)NC(=O)CI)O[C@H]1n1cnc2c(NC(=O)Nc3ccccc3)ncnc21` (stereo not given in full), the GI50 is 0.236 µM in the test with EKVX NSCLC; 9.81 µM in the test with HCT-15 colon; 0.392 µM in the test on HOP-62 NSCLC; 3.55 µM with K-562 leukemia; 2.71 µM with OVCAR-5 ovarian; 0.385 µM with PC-3 prostate. The GI50 in the test with RXF 393 renal was 0.713 µM; with SK-MEL-28 melanoma, 9.69 µM; in the test with SK-OV-3 ovarian, 10.4 µM; in the test with T-47D breast it was 9.63 µM. Moreover, the TGI was found to be 1.14 µM with EKVX NSCLC; 31.8 µM in the test with HCT-15 colon; 1.28 µM in the test on HOP-62 NSCLC; 8.5 µM in the test on K-562 leukemia; 12.2 µM in the test with OVCAR-5 ovarian; 3.42 µM with PC-3 prostate. Further, the TGI with RXF 393 renal was found to be 3.11 µM; in the test with SK-MEL-28 melanoma, 22.8 µM; with SK-OV-3 ovarian it was 27.9 µM; in the test on T-47D breast, 28 µM.
Turning to `Clc1ccc(N2COOC3(OOC2)C2CC4CC(C2)CC3C4)cc1`, the GI50 in the test on EKVX NSCLC is 4.17 µM; in the test with HCT-15 colon, 0.864 µM; in the test with HOP-62 NSCLC, 13.9 µM; in the test on K-562 leukemia it was 0.543 µM; in the test with OVCAR-5 ovarian, 8.34 µM; in the test on PC-3 prostate it was 5.11 µM. Moreover, the GI50 with RXF 393 renal was 6.96 µM; with SK-MEL-28 melanoma it was > 30.8 µM; in the test with SK-OV-3 ovarian, > 100 µM; in the test on T-47D breast, 4.97 µM. The TGI with EKVX NSCLC is > 100 µM; with HCT-15 colon it was > 41.9 µM; in the test on HOP-62 NSCLC, 38.6 µM; in the test with K-562 leukemia it was > 39.5 µM; in the test on OVCAR-5 ovarian, > 74.8 µM; in the test on PC-3 prostate it was > 75.3 µM. Besides, the TGI with RXF 393 renal was > 59.3 µM; with SK-MEL-28 melanoma, > 100 µM; with SK-OV-3 ovarian, > 100 µM; in the test on T-47D breast, > 100 µM.
For the compound `O=C1CC2(CCCc3sccc32)C(=O)N1` (stereo not given), the TGI with EKVX NSCLC, with HCT-15 colon, with HOP-62 NSCLC, in the test on K-562 leukemia, with OVCAR-5 ovarian and in the test with PC-3 prostate was > 100 µM in each case. The TGI in the test with RXF 393 renal, in the test on SK-MEL-28 melanoma, in the test on SK-OV-3 ovarian and in the test with T-47D breast was > 100 µM each time.
For `Nc1nc(SCC(=O)O)[nH]c(=O)c1N`, the TGI in the test on EKVX NSCLC was > 100 µM; in the test with HCT-15 colon it was > 100 µM; in the test on HOP-62 NSCLC it was > 100 µM; in the test on K-562 leukemia, 36.9 µM; with OVCAR-5 ovarian it was > 100 µM; in the test with PC-3 prostate it was > 100 µM. Moreover, the TGI in the test with RXF 393 renal, with SK-MEL-28 melanoma, with SK-OV-3 ovarian and with T-47D breast was > 100 µM in each case.
